In patent US9468690B2, “Decorin gene delivery system and cancer treatment” ([…] CO., LTD., priority 2005, dated 2016):

What was measured:
Assay type in all cases: cell-based, human
A549 cells [1] = test: Flow cytometry after PI staining, subG1 cell population
Method: (§1) To examine apoptosis induced by decorin, human tumor cell lines, U343, U87MG, C33A, Hep3B and A549 were introduced to 25T culture flasks and 24 hr later, were infected with each adenovirus at MOIs of 0.5-50. […] After 48 hr, 72 hr and 96 hr of infection, the infected cells were collected and fixed in 70% ethanol at 4° C. over 24 hr. Following the fixation, the cells were incubated at 4° C. with a mixture of PI (propidium iodide, 50 μg/ml) and RNase (ribonuclease) for 15 min and the FACS analysis was then performed.

C33A cells [2] = test: as above
Method: as §1

Hep3B cells [3] = test: as above
Method: as §1

U343 cells [4] = test: as above
Method: as §1

U87MG cells [5] = test: as above
Method: as §1

U343 cells [6] = test: Annexin V-FITC and PI dual staining, flow cytometry; details: FIG. 9b, replication-incompetent adenoviruses
From the text: In addition, to examine early apoptosis induced by decorin, several human tumor cell lines were infected with each adenovirus as described above. The infected cells were collected and then processed for Annexin V/PI dual staining according to manufacturer's instruction in the ApoAlert V-FITC (fluorescein isothiocyanate) apoptosis detection kit (Clontech, Palo Alto, Calif.), followed by flow cytometric analysis.

A549 cells [7] = test: TUNEL assay
Method: (§2) U343 (5×10^4), U87MG (5×10^4), C33A (5×10^5), Hep3B (4×10^5) and A549 (5×10^4) cells were plated onto a chamber slide and then infected with adenovirus at an MOI of 0.2-20. Following 24 hr and 48 hr of infection, medium was removed and TUNNEL (terminal deoxynucleotidyl transferase(TdT)-mediated dUTP nick end labeling) assay was carried out according to the manufacturer's instruction of ApopTag kit (Intergen, Purchase, N.Y.). For color development, cells were incubated with peroxidase-conjugated avidin and DAB (diaminobenzidine; DAKO, Carpinteria, Calif.). At the time that color of cells became brown, cells were counterstained with 0.5% methyl green for 10 min and observed under microscope in more than 4 selected fields. The ratio of stained cells to total cells was calculated.

C33A cells [8] = test: TUNEL assay
Method: as §2

Hep3B cells [9] = test: TUNEL assay
Method: as §2

U343 cells [10] = test: TUNEL assay
Method: as §2

U87MG cells [11] = test: TUNEL assay
Method: as §2

[12] = Table 1, oncolytic adenoviruses, 48-96 hr post-infection
[13] = Table 2, replication-incompetent adenoviruses
[14] = Table 3 lower part, replication-incompetent adenoviruses
[15] = Table 3 upper part, oncolytic adenoviruses

CCc1c2c(nc3ccc(OC(=O)N4CCC(N5CCCCC5)CC4)cc13)-c1cc3c(c(=O)n1C2)COC(=O)[C@]3(O)CC [CPT, camptothecin-11]
subG1 cell population (%) (A549 cells [1]; [12]): 17.96% | subG1 cell population (%) (A549 cells [1]; [13]): 21.59% | subG1 cell population (%) (C33A cells [2]; [12]): 26.44% | subG1 cell population (%) (C33A cells [2]; [13]): 68.20% | subG1 cell population (%) (Hep3B cells [3]; [12]): 5.99% | subG1 cell population (%) (Hep3B cells [3]; [13]): 16.60% | subG1 cell population (%) (U343 cells [4]; [12]): 59.86% | subG1 cell population (%) (U343 cells [4]; [13]): 29.02% | subG1 cell population (%) (U87MG cells [5]; [12]): 14.78% | subG1 cell population (%) (U87MG cells [5]; [13]): 12.51% | apoptotic rate (Annexin V-FITC+/PI−) (U343 cells [6]): 19.41% | Proportion of apoptotic cells (%) (A549 cells [7]; [14]): 69.80 ± 8.38% | Proportion of apoptotic cells (%) (A549 cells [7]; [15]): 37.5 ± 5.35% | Proportion of apoptotic cells (%) (C33A cells [8]; [14]): 70.51 ± 15.90% | Proportion of apoptotic cells (%) (C33A cells [8]; [15]): 60.1 ± 25.91% | Proportion of apoptotic cells (%) (Hep3B cells [9]; [14]): 75.86 ± 3.11% | Proportion of apoptotic cells (%) (Hep3B cells [9]; [15]): 71.2 ± 15.73% | Proportion of apoptotic cells (%) (U343 cells [10]; [14]): 74.67 ± 12.38% | Proportion of apoptotic cells (%) (U343 cells [10]; [15]): 53.5 ± 7.45% | Proportion of apoptotic cells (%) (U87MG cells [11]; [14]): 40.00 ± 13.17% | Proportion of apoptotic cells (%) (U87MG cells [11]; [15]): 83.0 ± 29.29%
